Laboratory results taken from US5559145A, “1,2,4-trioxane derivatives” (priority 1995, dated 1996).

Legend:
T. gondii [1] = assay: Activity against T. gondii within macrophages, assessed by light microscopy; format: cell-based, Toxoplasma gondii (in murine peritoneal macrophages); set-up: % infected cells / Mean T. gondii per infected vacuole / T. gondii per 100 cells: dose or concentration left out as unconfirmed; details: for Mean T. gondii per infected vacuole: macrophages (no drug: 4.3); for % infected cells: macrophages (no drug: 42); for T. gondii per 100 cells: macrophages (no drug: 191); for activity compared with pyrimethamine and pyrimethamine + sulfadiazine / inhibition of the intracellular growth of toxoplasma: in words, at respective IC90 values
Method: Unelicited murine peritoneal macrophages obtained by washing the peritoneal cavities of Swiss-Webster mice with 3 ml of Hanks' Balanced Salt Solution (HBSS) (4° C.) containing 5 U ml of heparin were purified by centrifugation in Ficoll-Paque (Pharmacia) 500×g for 15 min, pooled and suspended in medium 199 (M199) containing 10% heat-inactivated (56° C. for 60 min) fetal calf serum (FCS). An amount of […] was seeded into each well of 96-well dishes (Costar) and allowed to adhere during 2-3 h at 37° C. in an 5% CO2 -95% air atmosphere. The nonadherent cells were removed by washing twice with prewarmed HBSS and challenged with 3 ×10 tachyzoites of the RG strain of […] in M199-3% FCS for 1 h. After washing twice with HBSS, the infected monolayers received the test drugs (Compounds 1 to 10 of Table 1) at various concentrations in M199-10% FCS. The monolayers were then pulsed with […] of [3H]uracil (Amersham) during a period of 18 h. The acid-precipitable radioactivity on each well was counted by using a filtration procedure and the IC90 was calculated by probit analysis.
2×10^6 of the macrophage cells were seeded into each chamber of four-chamber glass slides (Lab-Tek). After removing nonadherent cells with HBSS, the monolayers were infected with 2×10^6 T. gondii for 1 h followed by addition of the drugs with the media over 18 h. Monolayers were fixed with 0.4% 9-aminoacridine (50% ethanol-water vol/vol), Giemsa-stained, and assessed by light microscopy. The results are shown in the following Table 6, including results of control compounds: […]

Onchocerca gutturosa [2] = assay: Activity against Onchocerca gutturosa assessed by motility (parasites, medium, serum, cells and test drugs); format: cell-based; set-up: reduction of motility: concentration or dose not given beside the values; details: with cells
Method: Testing in vitro against Onchocerca gutturosa is a valid model for activity against Onchocerca volvulus.
(§1) Testing of test drugs (Compounds 1, 2, 3, 4, 5, 7, 8, 9, 11, and 12 of Table 1 ) against the parasitic worms Onchocerca gutturosa was carried out in accordance with the method described in J Helminth (1987) 60, 271, firstly using parasites, medium, serum, cells and test drugs.

Onchocerca gutturosa [3] = assay: Activity against Onchocerca gutturosa, tetrazolium colorimetric test (parasites, medium, cells and test drug); format: cell-based; details: with cells; for inhibition at 50 µM: Onchocerca gutturosa, 5×10^-5 M, read-out: inhibition of formazan formation
Method: (§2) A suitable colorimetric assay uses formation of formazan, a blue dye, from tetrazolium cation generated by 3-[…] bromide (J Helminth (1987) 60, 271). Firstly, Compounds 1, 2, 4, 5, 7, 8, 9, 11 and 12, along with artemisinin and arteether were tested using parasites, medium, cells and test drug.

Onchocerca gutturosa [4] = assay: Activity against Onchocerca gutturosa assessed by motility (parasites, medium and drug); format: cell-based; details: for effect on worm motility: in words; for effect on worm motility / motility: without cells
Method: as §1
Secondly, test drugs (Compounds 2, 3, 4, 7,. 8, 9 and 12 of Table 1) were tested using parasites, medium and drug. […] Under these conditions, commercial anti-helminthic drugs and artemisinin also cut motility by some 30-40%.

Onchocerca gutturosa [5] = assay: Activity against Onchocerca gutturosa, tetrazolium colorimetric test (parasites, medium and test drugs); format: cell-based; details: without cells
Method: as §2
Secondly, Compounds 2, 3, 4, 7, 8, 9, and 12, artemisinin and arteether were tested using parasites, medium and test drugs.

[6] = tested on: in vitro mitogenic assay; mixed lymphocyte reaction; assay: Immunomodulatory activity (in vitro mitogenic assay; mixed lymphocyte reaction); format: cell-based; details: in words
Method: Several of the compounds mentioned in Examples 1 to 17 were also tested for immunomodulatory activity (in vitro mitogenic assay; mixed lymphocyte reaction).

T. gondii [7] = assay: Activity against T. gondii within HeLa cells, assessed by light microscopy; format: cell-based, Toxoplasma gondii (in HeLa (ATCC CCL2) cells); details: for Mean T. gondii per infected vacuole: HeLa (no drug: 8.1); for % infected cells: HeLa (no drug: 49); for T. gondii per 100 cells: HeLa (no drug: 620); for block of parasite growth: in words, HeLa cells
Method: Confluent epithelium-like HeLa (ATCC CCL2) cell monolayers growing on 6-well plastic multidish (9.6 cm^2, Nunc, Roskilde, Denmark) were used. After washing with HBSS, the monolayers were infected with 3×10^6 ml^-1 T. gondii in M199-3% FCS (total amount per well, 3 ml) for 1 h, washed twice with HBSS, and the drugs were added with M199-10% FCS over 22 h. Monolayers were then fixed, Giemsa-stained and-assessed by light microscopy.

[8] = tested on: chloroquine-resistant strains of P. falciparum; details: in words; background, Science 228, 1049 (1985); cited from earlier work
[9] = in words, two to three days exposure
[10] = in words, 7 days, after an induction period

## O=C1C(c2ccccc2)=C[C@@]2(c3ccccc3)OOC3(CCCCC3)O[C@@H]12 (relative stereo) [Compound 6 (Table 4)]
T. gondii [1]; 54, 18 h
  Mean T. gondii per infected vacuole: 1.9
  % infected cells: 20%
  T. gondii per 100 cells: 43
T. gondii [1]
  activity compared with pyrimethamine and pyrimethamine + sulfadiazine: comparable to that of pyrimethamine, and pyrimethamine in combination with sulfadiazine
  inhibition of the intracellular growth of toxoplasma: confirmed the inhibition of the intracellular growth of toxoplasma

## CC1(C)OO[C@]2(c3ccccc3)CC(c3ccccc3)=C[C@@H]2O1 (relative stereo) [Compound 5 (Table 4)]
Onchocerca gutturosa [2]; after 7 days
  reduction of motility: 100%
Onchocerca gutturosa [2]; in words, one day exposure
  effect on worm motility: significantly effective

## O[C@@H]1C(c2ccccc2)=C[C@@]2(c3ccccc3)OOC3(CCCCC3)O[C@@H]12 (relative stereo) [Compound 9 (Table 4)]
Onchocerca gutturosa [2]; after 7 days
  reduction of motility: 100%
Onchocerca gutturosa [2]; in words, one day exposure
  effect on worm motility: immediately immobilized worms in less than a day
Onchocerca gutturosa [2]; [9]
  effect on worm motility: markedly inhibitory
Onchocerca gutturosa [3]
  inhibition at 50 µM: > 90%
Onchocerca gutturosa [4]; after one day
  effect on worm motility: immediate response

## C1=C(c2ccccc2)C[C@@]2(c3ccccc3)OOC3(CCOCC3)O[C@@H]12 (relative stereo) [Compound 3 (Table 4)]
Onchocerca gutturosa [2]; in words, overall
  effectiveness in the motility test: not so effective
Onchocerca gutturosa [4]; after 2-3 days
  effect on worm motility: performed poorly

## CCO[C@H]1O[C@@H]2O[C@@]3(C)CC[C@H]4[C@H](C)CC[C@@H]([C@H]1C)[C@@]24OO3 [arteether, reference compound]
Onchocerca gutturosa [2]; after a day, 1440 min
  reduction of motility: 30%
Onchocerca gutturosa [5]; in words
  inhibition of formazan formation: ineffective
Onchocerca gutturosa [3]
  inhibition of formazan formation: about 40%
Onchocerca gutturosa [4]; after 4 days
  motility: 4
Onchocerca gutturosa [4]; after 7 days
  motility: 2

## C1=C(c2ccccc2)C[C@]2(c3ccccc3)OOC3(CCOCC3)O[C@H]12 (relative stereo) [Compound 12]
[6]
  immunomodulatory activity: most important activity

## CCc1nc(N)nc(N)c1-c1ccc(Cl)cc1 [P, pyrimethamine, reference compound]
T. gondii [1]; 1, 18 h
  Mean T. gondii per infected vacuole: 1.2
  % infected cells: 14%
  T. gondii per 100 cells: 33

## O[C@@H]1C(c2ccccc2)=C[C@@]2(c3ccccc3)OOC3(CCCC3)O[C@@H]12 (relative stereo) [Compound 8 (Table 4)]
Onchocerca gutturosa [2]; after 7 days
  reduction of motility: 100%
Onchocerca gutturosa [2]; [9]
  effect on worm motility: markedly inhibitory
Onchocerca gutturosa [4]; after one day
  effect on worm motility: immediate response

## CC1(C)OO[C@@]2(c3ccc(Cl)cc3)CC(c3ccc(Cl)cc3)=C[C@H]2O1 (relative stereo) [Compound 6]
[6]
  immunomodulatory activity: most important activity

## CC1(C)OO[C@]2(c3ccccc3)CCC(c3ccccc3)=C[C@@H]2O1 (relative stereo) [Compound 12 (Table 4)]
Onchocerca gutturosa [2]; after 7 days
  reduction of motility: 100%
Onchocerca gutturosa [2]; [9]
  effect on worm motility: markedly inhibitory
Onchocerca gutturosa [3]
  inhibition at 50 µM: > 90%
Onchocerca gutturosa [4]; after 2-3 days
  motility: less than 1

## C1=C(c2ccccc2)C[C@@]2(c3ccccc3)OOC3(CCCC3)O[C@@H]12 (relative stereo) [Compound 1 (Table 4)]
Onchocerca gutturosa [2]; after 7 days
  reduction of motility: 100%
Onchocerca gutturosa [2]; [10]
  effect on worm motility: completely stopped morality
T. gondii [1]; 6.8, 18 h
  Mean T. gondii per infected vacuole: 1.6
  % infected cells: 19%
  T. gondii per 100 cells: 38
T. gondii [1]
  activity compared with pyrimethamine and pyrimethamine + sulfadiazine: comparable to that of pyrimethamine, and pyrimethamine in combination with sulfadiazine
  inhibition of the intracellular growth of toxoplasma: confirmed the inhibition of the intracellular growth of toxoplasma
T. gondii [7]; 6.8 mg ml^-1, 22 h
  Mean T. gondii per infected vacuole: 1.8
  % infected cells: 23%
  T. gondii per 100 cells: 46
T. gondii [7]
  block of parasite growth: able to block parasite growth

## C[C@@H]1CC[C@H]2[C@@H](C)C(=O)O[C@@H]3O[C@@]4(C)CC[C@@H]1[C@]32OO4 [artemisinin, reference compound]
Onchocerca gutturosa [2]; in words, one day exposure
  effect on worm motility: ineffective
[8]
  activity of Qinghaosu against chloroquine-resistant strains: remarkably active
Onchocerca gutturosa [5]
  inhibition of formazan formation: about 25%
Onchocerca gutturosa [3]; in words
  inhibition of formazan formation: ineffective
Onchocerca gutturosa [4]; without cells ("under these conditions")
  reduction of motility: 30-40%

## O[C@@H]1C(c2ccccc2)=C[C@@]2(c3ccccc3)OOC3(CCOCC3)O[C@@H]12 (relative stereo) [Compound 7 (Table 4)]
Onchocerca gutturosa [2]; after 7 days
  reduction of motility: 100%
Onchocerca gutturosa [2]; [10]
  effect on worm motility: completely stopped morality
Onchocerca gutturosa [4]; after 2-3 days
  motility: less than 1

## Cc1ccc(C2=C[C@@]3(c4ccc(C)cc4)OOC4(CCCCC4)O[C@H]3C2=O)cc1 (relative stereo) [Compound 11 (Table 4)]
Onchocerca gutturosa [2]; after 7 days
  reduction of motility: 100%
Onchocerca gutturosa [2]; in words, one day exposure
  effect on worm motility: significantly effective
Onchocerca gutturosa [3]
  inhibition at 50 µM: > 90%

## C1=C(c2ccccc2)C[C@@]2(c3ccccc3)OOC3(CCSCC3)O[C@@H]12 (relative stereo) [Compound 2 (Table 4)]
Onchocerca gutturosa [2]; after 7 days
  reduction of motility: 100%
Onchocerca gutturosa [2]; [9]
  effect on worm motility: markedly inhibitory
T. gondii [1]; 5.3, 18 h
  Mean T. gondii per infected vacuole: 1.2
  % infected cells: 14%
  T. gondii per 100 cells: 35
T. gondii [1]
  activity compared with pyrimethamine and pyrimethamine + sulfadiazine: comparable to that of pyrimethamine, and pyrimethamine in combination with sulfadiazine
  inhibition of the intracellular growth of toxoplasma: confirmed the inhibition of the intracellular growth of toxoplasma
T. gondii [7]; 5.3 mg ml^-1, 22 h
  Mean T. gondii per infected vacuole: 1.3
  % infected cells: 23%
  T. gondii per 100 cells: 38
T. gondii [7]
  block of parasite growth: able to block parasite growth
Onchocerca gutturosa [4]; after 2-3 days
  motility: less than 1

## O=C1CCC2(CC1)OO[C@]1(c3ccccc3)CC(c3ccccc3)=C[C@@H]1O2 (relative stereo) [Compound 4 (Table 4)]
Onchocerca gutturosa [2]; after 7 days
  reduction of motility: 100%
Onchocerca gutturosa [2]; in words, one day exposure
  effect on worm motility: significantly effective
Onchocerca gutturosa [4]; after one day
  effect on worm motility: immediate response
